Results on 6 compounds are retold here after publication PMC6268294, “Synthesis of Chalcones with Anticancer Activities” (Molecules, 2012).

Structures are written as SMILES. ≈ marks a conversion by molar mass, not a printed value. Read-outs that look alike come from different tables or passages of the source. Some results are limits rather than exact numbers.

Data set [1] relates to caspase-3/7 in MCF-7 cells. Kind of data set: Caspase-Glo-3/7 activity. It counts as cell-based, human. The following applies: MCF-7, 24 h, highest concentration (6 µg/mL for 1); control 30,140 RLU. The procedure:
(§1) Due to the observation of significant cytotoxicity of selected compounds towards MCF-7 cells, the following analyses were done on them only. Cells were treated with compound 1 (1A- 3 µg/mL; 1B- 6 µg/mL), 23 (23A- 3 µg/mL; 23B- 6 µg/mL), 25 (25A- 2 µg/mL; 25B- 4 µg/mL) and 5 (5A- 3 µg/mL; 5B- 6 µg/mL).
(§2) Activity of cellular caspases was measured using the Caspase-Glo-9, Caspase-Glo-3/7 and Caspase-Glo-8 assay reagents (Promega), according to the manufacturer's instructions. The assays provide a luminogenic caspase-3/caspase-7 or caspase-8 or caspase-9 substrate, respectively, in a buffer system optimized for caspase activity measurement in cell lysates. The luciferase signal generated is proportional to the amount of caspase activity present. MCF-7 cells have no caspase-3 activity due to functional deletion of the CASP-3 gene. Therefore, the activity measured in this test is that of caspase-7. Briefly, cells were plated in opaque 96-well plates in triplicate and treated with […]. After 24 h treatment with compounds 1, 23, 25 and 5 as mentioned before, the assay reagents were added to the plates at room temperature and incubated for 60 min, and the luminescence was measured using a plate reader. All assays were done in triplicate, and means ± SD were calculated for each condition.

For data set [2], the system named is human normal liver cell line WRL-68. Put plainly: MTT cell viability assay, WRL68. It counts as cell-based. The following applies: 24 h treatment. The procedure: (§3) A549, PC3, MCF-7, HT-29, WRL68 and MCF-7 cells were obtained from the ATTC (Rockville, MD, USA) and grown in RPMI-1640 medium, 10% fetal bovine serum (FBS) and 1% pen-strep, in humidified conditions at 5% CO2 and 37 °C. The different cell lines mentioned above were used to determine the inhibitory effects of compounds on cell growth using the MTT assay. This colorimetric assay is based on the conversion of the yellow tetrazolium bromide (MTT) to a purple formazan derivative by mitochondrial succinate dehydrogenase in viable cells. Cells were seeded in 96-well plate and incubated for 24 h at 37 °C with 5% CO2 saturation. After incubation, the cells were treated with different concentration of compounds and incubated for another 24 h. After 24 h of drug treatment, 20 µL of MTT solution at 5 mg/mL was added and incubated for 4 h. Dimethyl sulfoxide (DMSO) in volume of 100 µL is added into each well to dissolve the purple formazan formed. The colorimetric assay is measured and recorded at absorbance of 570 nm.
A general note: Tetrazolium assays rely on reduction of a dye to a coloured formazan, in cell work by metabolically active cells.

The test system of data set [3] is human lung adenocarcinoma cell line A549. Kind of data set: MTT cell viability assay, A549. It counts as cell-based. The following applies: 24 h treatment. The procedure: as §3
Data set [4] has as its system human prostate cancer cell line PC3. Kind of data set: MTT cell viability assay, PC3. It counts as cell-based. The following applies: 24 h treatment. As for the experimental part:
as §3

For data set [5], the system named is MCF-7 (breast), A549 (lung), PC3 (prostate), HT-29 (colorectal) and WRL68 (liver). Put plainly: MTT assay, summary over all five cell lines. It counts as cell-based, human. Conditions: for IC50: Homo sapiens. As for the experimental part: as §3
The subject of data set [6] is MCF-7 cells. Put plainly: Multiparametric high content screening (HCS) cytotoxicity/apoptosis assay. The format is cell-based, human. Conditions: for cell (membrane) permeability / cytochrome c release / mitochondrial membrane potential / total nuclear intensity (Hoechst 33342 nuclear chromatin staining) / cell loss: MCF-7, compounds 2-6 µg/mL; for cell (membrane) permeability / cytochrome c release / mitochondrial membrane potential / total nuclear intensity (Hoechst 33342 nuclear chromatin staining): tamoxifen 0.04 µg/mL, vs control; for cell loss: data not shown; for apoptosis in MCF-7 cells: shown by multiparameter cytotoxicity assay and caspase-3/7, -8, -9 activities, p < 0.05.

For data set [7], the system named is human breast adenocarcinoma cell line MCF-7. Put plainly: MTT cell viability assay, MCF-7. It counts as cell-based. Conditions: MCF7, 24 h treatment. As for the experimental part:
as §3

Data set [8] relates to human adenocarcinoma cell line HT-29 (colorectal cancer). Put plainly: MTT cell viability assay, HT-29. The format is cell-based. Conditions: 24 h treatment. As for the experimental part:
as §3

The subject of data set [9] is caspase-8 in MCF-7 cells. Put plainly: Caspase-Glo-8 activity. The format is cell-based, human. Conditions: MCF-7, 24 h, highest concentrations (6 µg/mL; 25: 4 µg/mL); control printed 50892 RLU; p < 0.05. As for the experimental part: as §1, §2
The subject of data set [10] is ROS in MCF-7 cells. Put plainly: Intracellular ROS level (DCFDA). The format is cell-based, human. The following applies: MCF-7, 24 h, high concentration (6 µg/mL; 25: 4 µg/mL), vs untreated control, p < 0.05. The procedure: as §1
The production of ROS was estimated by fluorescence using the redox-sensitive fluorescent probe DCFDA (Sigma). The oxidation of DCFDA by ROS converts the molecule to 2′,7′-dichlorodihydrofluorescein (DCF), which is highly fluorescent. Thus, ROS production by stimulated cells causes an increase in the fluorescence signal over time. ROS assays were performed as previously described (13). Briefly, the MCF-7 cells were seeded in 96-well plates (5 × 10^4 cells/well) and allowed to attach for 24 h. After 24 h treatment with compounds 1, 23, 25 and 5 as mentioned before, the cells were washed three times with PBS and incubated for 60 min with […] DCFDA at room temperature. Again the wells were washed with PBS. Fresh PBS was added (100 μL/well) and DCF fluorescence was detected using a Tecan Infinite M200 fluorescence microplate reader at excitation and emission wavelengths of 485 and 528 nm, respectively. The fluorescence intensity unit of treatments was compared with control.

Where [11] appears, read: all five cell lines, MTT, read-out: IC50 in all cell lines.

Usually IC50 stands for the point on the concentration scale where inhibition reaches its midpoint. `O=C(/C=C/c1ccccc1)c1ccccc1` [Compound 1, 1,3-Diphenylpropenone]: the “caspase-3/7 activity at highest concentration” value in data set [1] is listed as 210430 RLU. Moreover, in data set [2], the IC50 amounted to 10.6 ± 0.89 µg/mL (≈ 50.7 µM). Moreover, in data set [3], inhibition was half-maximal at 16.8 ± 1.08 µg/mL (≈ 80.5 µM) (IC50). This compound registered an IC50 in [4] of 9.11 ± 0.9 µg/mL (≈ 43.7 µM). Further, the IC50 in data set [5] (setting [11]) is less than 20 µg/mL. Besides, the “cytotoxic effect in words” value in [5] (all cell lines, MTT) is reported as “high cytotoxicity”. For the same compound, in data set [6], the “cell (membrane) permeability” value is “increased cell permeability”, the cytochrome c release entry was “cytochrome c release from mitochondria”, the mitochondrial membrane potential entry is given as “loss of mitochondrial membrane potential” and the “total nuclear intensity (Hoechst 33342 nuclear chromatin staining)” value (shortened to “total nuclear intensity”) is “increased total nuclear intensity”. Besides, in data set [6], the cell loss entry was “statistically significant cell loss” and the “apoptosis in MCF-7 cells” value was “capable in eliciting apoptosis”. For the same compound, the midpoint of inhibition in data set [7], the IC50, lay at 6.88 ± 0.219 µg/mL (≈ 33 µM). The compound also registered a concentration for half-maximal inhibition (IC50) in data set [8] of 10.1 ± 1.01 µg/mL (≈ 48.5 µM).

Consider `O=C(/C=C/c1cccc(Cl)c1)c1ccccc1` [Compound 25, 3-(3-Chlorophenyl)-1-phenylpropenone], for which, in data set [9], the “caspase-8 activity at highest concentration” value is listed as 18,356 RLU. This compound yielded an IC50 in [2] of 7.72 ± 1.6 µg/mL (≈ 31.8 µM). In data set [3], this compound had an IC50 of 14.5 ± 0.2 µg/mL (≈ 59.7 µM). Further, in [4], 6.94 ± 0.61 µg/mL (≈ 28.6 µM) corresponded to half-maximal inhibition (IC50). In addition, the “cytotoxic effect in words” value in data set [5] is “high cytotoxicity”. Besides, the IC50 in data set [5] (setting [11]) is less than 20 µg/mL. Further, in data set [6], the “cell (membrane) permeability” value is given as “increased cell permeability”, the cytochrome c release result is reported as “cytochrome c release from mitochondria”, the mitochondrial membrane potential entry is on record as “loss of mitochondrial membrane potential” and the “total nuclear intensity” value was “increased total nuclear intensity”. In data set [6], the cell loss result is listed as “statistically significant cell loss” and the “apoptosis in MCF-7 cells” value is recorded as “capable in eliciting apoptosis”. For the same compound, in [7], half-maximal inhibition (IC50) required 5.25 ± 0.67 µg/mL (≈ 21.6 µM). The compound also had an IC50 in data set [8] of 7.77 ± 1.1 µg/mL (≈ 32 µM).

As a reminder, the melting point is the temperature, or range, at which the solid turns liquid. On to `Cc1ccc(C(=O)/C=C/c2ccccc2Cl)cc1` [Compound 7, 3-(2-Chlorophenyl)-1-P-tolylpropenone], for which the melting point is 50 to 51 °C. This compound also registered an IC50 in data set [2] greater than 100 µg/mL. For the same compound, the IC50 in data set [3] is greater than 100 µg/mL. The same compound had an IC50 in [4] greater than 100 µg/mL. In data set [5], the “cytotoxic effect in words” value was “low cytotoxic effects”. This compound displayed an IC50 in [7] greater than 100 µg/mL. In addition, the IC50 in data set [8] was greater than 100 µg/mL.

On to `COc1ccc(C(=O)/C=C/c2cccc(C)c2)cc1` [Compound 12, 1-(4-Methoxyphenyl)-3-m-tolylpropenone], for which the melting point lay in the range of 74 to 75 °C. Besides, the IC50 in [2] amounted to 11.1 ± 1.8 µg/mL (≈ 44.1 µM). Besides, the half-maximal inhibitory concentration (IC50) in data set [3] stood at 31.8 ± 1.5 µg/mL (≈ 126 µM). Also, in data set [4], the IC50 worked out at 9.87 ± 0.71 µg/mL (≈ 39.1 µM). In data set [5] (all cell lines except for the A549 cell line, MTT, read-out: IC50 in all cell lines except A549), the IC50 was less than 20 µg/mL. The same compound displayed an IC50 in data set [7] of 9.53 ± 1.99 µg/mL (≈ 37.8 µM). Besides, the midpoint of inhibition in [8], the IC50, lay at 15.8 ± 2.1 µg/mL (≈ 62.5 µM).

Regarding `Cc1ccc(C(=O)/C=C/c2ccccc2O)cc1` [Compound 23, 3-(2-Hydroxyphenyl)-1-p-tolylpropenone], the melting point lay in the range of 165 to 167 °C. Moreover, in [9], the “caspase-8 activity at highest concentration” value is given as 18,342 RLU. Also, the 50% inhibitory concentration (IC50) in data set [2] turned out to be 9.53 ± 1.5 µg/mL (≈ 40 µM). Moreover, the IC50 in data set [3] stood at 16.8 ± 1.76 µg/mL (≈ 70.5 µM). The midpoint of inhibition in data set [4], the IC50, lay at 9.49 ± 0.7 µg/mL (≈ 39.8 µM). In addition, the “cytotoxic effect in words” value in data set [5] is recorded as “high cytotoxicity”. Besides, the IC50 in [5] (setting [11]) is less than 20 µg/mL. Also, in [6], the “cell (membrane) permeability” value is listed as “increased cell permeability”, the cytochrome c release result is given as “cytochrome c release from mitochondria”, the mitochondrial membrane potential result was “loss of mitochondrial membrane potential” and the “total nuclear intensity” value is reported as “increased total nuclear intensity”. Further, in [6], the cell loss result is listed as “statistically significant cell loss” and the “apoptosis in MCF-7 cells” value is on record as “capable in eliciting apoptosis”. The compound also came in with a 50% inhibitory concentration (IC50) in [7] of 6.87 ± 1.2 µg/mL (≈ 28.8 µM). This compound came in with an IC50 in [8] of 13 ± 0.54 µg/mL (≈ 54.5 µM).

In turn, `O=C(/C=C/c1ccccc1Cl)c1ccccc1` [Compound 5, 3-(2-Chlorophenyl)-1-phenylpropenone] displayed a melting point of 53 to 54 °C. Also, the half-maximal inhibitory concentration (IC50) in data set [2] came out at 11.5 ± 1.1 µg/mL (≈ 47.2 µM). In addition, the midpoint of inhibition in [3], the IC50, lay at 19.9 ± 1.66 µg/mL (≈ 82.2 µM). In data set [4], the IC50 came to 13.8 ± 1.2 µg/mL (≈ 57 µM). In addition, the “cytotoxic effect in words” value in data set [5] is “high cytotoxicity”. Further, the IC50 in [5] (setting [11]) was less than 20 µg/mL. Further, in data set [6], the “cell (membrane) permeability” value is “increased cell permeability”, the cytochrome c release result is “cytochrome c release from mitochondria”, the mitochondrial membrane potential entry was “loss of mitochondrial membrane potential” and the “total nuclear intensity” value is “increased total nuclear intensity”. Further, in data set [6], the cell loss entry is “statistically significant cell loss” and the “apoptosis in MCF-7 cells” value is on record as “capable in eliciting apoptosis”. This compound showed an IC50 in [7] of 7.99 ± 0.81 µg/mL (≈ 32.9 µM). Also, the “ROS increase at high concentration” value in data set [10] was found to be 2.7 fold. The IC50 in data set [8] came out at 13.2 ± 1.2 µg/mL (≈ 54.6 µM).
